Patent US10314847B2, “Scalarane sesterterpenoid, pharmaceutical composition and topoisomerase II and Hsp90 inhibitor for treating cancer, and use and preparation method thereof” (NATIONAL DONG HWA UNIVERSITY, priority 2017, dated 2019)
pIC50: −log10 of the molar value.

Assays:
[1] = tested on: K562; assay: MTT assay, cytotoxic effect on K562; assay type: cell-based; conditions: Homo sapiens; K562, molar value in text
Description: (§1) The cell lines were obtained from the American Type Culture Collection (ATCC, Manassas, Va., U.S.A.) or the Japanese Collection of Research Biosources (JCRB) Cell Bank (Japan). […] Antibodies against XIAP, NFκB (p65), GADD, CDK 4, HSF 1, ATF 6 and β-tubulin were obtained from Santa Cruz Biotechnology (Santa Cruz, Calif., U.S.A.). The Hybond ECL transfer membrane and ECL Western blotting detection kits were obtained from Amersham Life Sciences (Amersham, U.K.).
(§2) Several cancer cell lines including leukemia K562, Molt 4, and HL 60 cells, prostate cancer LNCaP cells, colon cancer DLD-1 cells and breast cancer T-47D cells were used to evaluate the antiproliferative activity (referring to Table 2).

[2] = tested on: Molt 4
Description: as §1, §2
It is known that mitochondria are critical intracellular loci of ROS production and ROS exposure can lead to the […] opening. The antioxidant, microsomal GST1, in the inner mitochondrial membrane can interact with the mitochondrial permeability transition (MPT) regulator proteins, such as ANT and/or CypD, to form a MPT pore contributing to mitochondria-mediated cell death. In addition, mitochondrial homeostasis of tumor cells is regulated by an organelle-specific Hsp90 chaperone network.

[3] = biological target: T1, human topoisomerase II (Homo sapiens, UniProt P11388); assay: Assay of topoisomerase II catalytic inhibitors and poisons (cell-free pHOT1 DNA relaxation/cleavage); assay type: biochemical; conditions: cell-free system; read-out: Topo II activity IC50 (converted)
T1 construct: purchased Topogen
Description: Assay of Topoisomerase II Catalytic Inhibitors and Poisons:
Reactions were terminated by adding 2 μL of 10% SDS to facilitate trapping the enzyme in a cleavage complex, followed by the addition of 2.5 μL of proteinase K (50 μg/mL) to digest the bound protein (incubated at 37° C. for 15 minutes) and finally by adding 0.1 volume of the sample loading dye. The DNA products were analyzed via electrophoresis through vertical 2% agarose gels at 2 voltage/cm in 0.5×TAE buffer. Gels were stained with ethidium bromide (EtBr) and photographed using an Eagle Eye II system (Stratagene, La Jolla, Calif., U.S.A.). The quantitative analysis of the DNA Topo II activity was performed.

[4] = tested on: γH2AX; assay: Western blot of γH2AX expression in Molt 4 cells; assay type: cell-based, human; conditions: Molt 4 cells, 0.0625, 0.125 and 0.25 μg/mL, 24 hours
Description: Protein expression was analyzed with Western blotting. GAPDH was used as the loading control.
In order to confirm whether the DNA damage-induced by the marine terpenoids of the present invention involved the inhibition of Topo II activity, a cell-free DNA cleavage assay using an enzyme-mediated negatively supercoiled pHOT1 plasmid DNA was applied. […] These marine terpenoids suppressed Topo II activity, resulting in the inhibition of supercoiled DNA relaxation in a dose-dependent manner (FIG. 2(A)). […] To determine whether the apoptotic mechanism of compounds 1 to 3 affects γH2AX (as a biomarker of DNA damage) induction, Western blot analysis was employed to examine the activation of γH2AX.

[5] = tested on: Molt 4 cells; assay: Annexin V/PI apoptosis assay; assay type: cell-based, human; conditions: Molt 4 cells, 0.0625, 0.125 and 0.25 μg/mL, 24 hours, dose-dependent
Description: Annexin V/Propidium Iodide (PI) Apoptosis Assay:
The externalization of phosphatidylserine (PS) and membrane integrity were quantified using an annexin V-fluorescein isothiocyanate (annexin V-FITC) staining kit. In brief, 10^6 cells were grown in 35 mm diameter plates and were labeled with annexin V-FITC (10 μg/mL) and PI (20 μg/mL) prior to harvesting. After labeling, all plates were washed with a binding buffer and harvested. Cells were resuspended in the binding buffer at a concentration of 2×10^5 cells/mL before analysis by flow cytometer FACS-Calibur (Becton-Dickinson, San Jose, Calif., U.S.A.) and CellQuest software. Approximately 10,000 cells were counted for each determination.

[6] = tested on: Molt 4 cells; assay: Intracellular calcium accumulation (Fluo 3, flow cytometry); assay type: cell-based, human
Description: Determination of Reactive Oxygen Species (ROS) Generation, Calcium Accumulation, and Matrix Metalloproteinase (MMP) Disruption:
MMP disruption, calcium accumulation and ROS generation were detected with the JC-1 cationic dye (5 μg/mL), the fluorescent calcium indicator (Fluo 3, […]) and the carboxy derivative of fluorescein (carboxy-H2DCFDA, […]), respectively. In brief, the treated cells were labeled with a specific fluorescent dye for 30 minutes. After labeling, cells were washed with PBS and resuspended in PBS at a concentration of 1×10^6 cells/mL before analysis via flow cytometry.
Oxidative stress is manifested by ROS overexpression and cannot be balanced by the available antioxidant machinery. Compound 1 of the present invention can damage the integrity of mitochondria, which are the major production sites of the superoxide anion, […]. The induction of the intracellular formation of ROS by compound 1 was determined with a carboxyl derivative of fluorescein, carboxy-H2DCFDA dye using flow cytometric analysis. […] Furthermore, the effect of compound 1 on the release of intracellular Ca^2+, was evaluated using fluorescent calcium indicator, Fluo 3. […] Thus, the effect of compound 1 (0.0625 μg/mL) at different time intervals (0, 3, 6 and 9 hours) on the level of nuclear DNA integrity was determined. […]

[7] = tested on: Hsp90 client proteins; assay: Western blot of Hsp90, Hsp70 and Hsp90 client proteins; assay type: cell-based, human; conditions: Molt 4 cells, 0.0625 μg/mL
Description: The induction of Hsp70 is the biomarker of Hsp90 with N-terminal inhibition. Aiming to understand the relation between Hsp90 function and the expression of Hsp70 and 90 clients, Molt 4 cells were treated with compound 1 (0.0625 μg/mL) for different time intervals. […] Furthermore, as shown in FIG. 5(B), Hsp90 client proteins were suppressed, including p70^S6K, NFκB, Raf-1, p-GSK3β, MEK 1 and XIAP ([…] protein), MDM 2 and Rb2 (oncoprotein), and CDK4 (cell cycle regulatory protein), HIF 1 and HSF1 (transcription factor). The majority of Hsps accumulate in subcellular localizations that determine whether a cell is going to die or differentiate. Furthermore, the localization of Hsp70 in response to the compound 1 treatment was identified using immunofluorescence by confocal microscope.

T1 sequence (P11388 whole entry): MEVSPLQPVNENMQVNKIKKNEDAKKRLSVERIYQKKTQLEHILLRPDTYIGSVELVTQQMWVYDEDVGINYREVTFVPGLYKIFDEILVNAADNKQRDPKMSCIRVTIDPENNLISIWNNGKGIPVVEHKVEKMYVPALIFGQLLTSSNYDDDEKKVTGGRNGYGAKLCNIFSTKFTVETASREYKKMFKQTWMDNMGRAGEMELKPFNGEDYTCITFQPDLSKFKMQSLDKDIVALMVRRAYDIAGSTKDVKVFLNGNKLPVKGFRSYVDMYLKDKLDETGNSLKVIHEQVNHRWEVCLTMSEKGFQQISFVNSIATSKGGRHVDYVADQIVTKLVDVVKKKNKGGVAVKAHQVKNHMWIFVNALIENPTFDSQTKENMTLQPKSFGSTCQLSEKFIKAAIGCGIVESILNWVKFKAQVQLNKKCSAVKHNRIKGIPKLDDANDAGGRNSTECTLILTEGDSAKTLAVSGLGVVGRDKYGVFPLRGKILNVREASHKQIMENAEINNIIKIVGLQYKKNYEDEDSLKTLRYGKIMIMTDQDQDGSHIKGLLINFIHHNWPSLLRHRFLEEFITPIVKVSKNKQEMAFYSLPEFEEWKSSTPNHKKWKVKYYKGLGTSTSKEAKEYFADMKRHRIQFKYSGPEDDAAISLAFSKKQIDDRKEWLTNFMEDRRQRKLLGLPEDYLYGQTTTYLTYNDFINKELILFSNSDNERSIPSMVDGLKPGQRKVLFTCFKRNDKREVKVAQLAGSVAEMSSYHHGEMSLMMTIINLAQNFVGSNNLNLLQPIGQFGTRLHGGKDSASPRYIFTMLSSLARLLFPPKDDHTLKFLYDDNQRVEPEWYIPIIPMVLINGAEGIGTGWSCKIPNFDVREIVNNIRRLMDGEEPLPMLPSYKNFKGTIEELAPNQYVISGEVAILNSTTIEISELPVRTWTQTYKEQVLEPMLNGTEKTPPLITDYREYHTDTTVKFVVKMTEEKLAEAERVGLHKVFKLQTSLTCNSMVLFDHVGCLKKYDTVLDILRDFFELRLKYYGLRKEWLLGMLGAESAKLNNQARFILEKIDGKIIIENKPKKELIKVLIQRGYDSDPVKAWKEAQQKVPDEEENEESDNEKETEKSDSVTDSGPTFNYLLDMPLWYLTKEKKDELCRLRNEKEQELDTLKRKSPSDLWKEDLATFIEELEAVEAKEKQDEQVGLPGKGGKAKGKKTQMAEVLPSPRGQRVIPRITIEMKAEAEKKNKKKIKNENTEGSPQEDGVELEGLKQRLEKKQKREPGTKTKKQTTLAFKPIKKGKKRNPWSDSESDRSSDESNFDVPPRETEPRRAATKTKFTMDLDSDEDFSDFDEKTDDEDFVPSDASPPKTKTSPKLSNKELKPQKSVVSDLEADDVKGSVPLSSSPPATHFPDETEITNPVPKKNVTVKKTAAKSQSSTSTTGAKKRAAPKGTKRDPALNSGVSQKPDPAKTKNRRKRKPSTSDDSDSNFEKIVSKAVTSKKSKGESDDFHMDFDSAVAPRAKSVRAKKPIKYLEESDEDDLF

## CC[C@@]1(C)CCC[C@]2(C)[C@H]3C[C@@H](OC(=O)C[C@@H](C)O)[C@]4(C)[C@@H](C=O)C(C(C)=O)=CC[C@H]4[C@]3(C)CC[C@@H]12 (relative stereo) [Compound 1, 12β-(3′β-hydroxybutanoyloxy)-20,24-dimethyl-24-oxo-scalara-16-en-25-al]
[1]
  pIC50: 8.68
[2]
  Cytotoxic effect IC50, Molt 4: 0.01 µg/mL
[3]
  IC50: 3.95 µM
[4]
  Expression of γH2AX (DNA damage biomarker): significantly enhanced the expression of γH2AX in a dose-dependent manner
[5]
  Apoptotic population (annexin-V/PI): increase in the apoptotic population
[6]; 2 hours
  Increase in intracellular Ca2+ accumulation versus MFI of control: 1.06 folds
[6]; 18 hours
  Increase in intracellular Ca2+ accumulation versus MFI of control: 1.06 folds
[7]
  Expression of HSF 1 protein: attenuated
  Hsp90 client proteins (p70S6K, NFκB, Raf-1, p-GSK3β, MEK 1, XIAP, MDM 2, Rb2, CDK4, HIF 1, HSF1): suppressed
[7]; different time intervals
  Expression of Hsp70: increased in a time-dependent manner
  Expression of Hsp90 protein: did not notably attenuate
